{"source": "patent US20210230179A1", "about": "“THIENO[2,3-B]PYRIDINE DERIVATIVES AS EPAC INHIBITORS AND THEIR PHARMACEUTICAL USES” (INSTITUT NATIONAL DE LA SANTE ET DE LA RECHERCHE MEDICALE …, priority 2018, published 2021)", "key": {"Epac2": {"biological_target": "T1, Epac2 (Homo sapiens, UniProt Q8WZA2)", "T1 sequence (Q8WZA2 1-867 isoform Q8WZA2-3)": "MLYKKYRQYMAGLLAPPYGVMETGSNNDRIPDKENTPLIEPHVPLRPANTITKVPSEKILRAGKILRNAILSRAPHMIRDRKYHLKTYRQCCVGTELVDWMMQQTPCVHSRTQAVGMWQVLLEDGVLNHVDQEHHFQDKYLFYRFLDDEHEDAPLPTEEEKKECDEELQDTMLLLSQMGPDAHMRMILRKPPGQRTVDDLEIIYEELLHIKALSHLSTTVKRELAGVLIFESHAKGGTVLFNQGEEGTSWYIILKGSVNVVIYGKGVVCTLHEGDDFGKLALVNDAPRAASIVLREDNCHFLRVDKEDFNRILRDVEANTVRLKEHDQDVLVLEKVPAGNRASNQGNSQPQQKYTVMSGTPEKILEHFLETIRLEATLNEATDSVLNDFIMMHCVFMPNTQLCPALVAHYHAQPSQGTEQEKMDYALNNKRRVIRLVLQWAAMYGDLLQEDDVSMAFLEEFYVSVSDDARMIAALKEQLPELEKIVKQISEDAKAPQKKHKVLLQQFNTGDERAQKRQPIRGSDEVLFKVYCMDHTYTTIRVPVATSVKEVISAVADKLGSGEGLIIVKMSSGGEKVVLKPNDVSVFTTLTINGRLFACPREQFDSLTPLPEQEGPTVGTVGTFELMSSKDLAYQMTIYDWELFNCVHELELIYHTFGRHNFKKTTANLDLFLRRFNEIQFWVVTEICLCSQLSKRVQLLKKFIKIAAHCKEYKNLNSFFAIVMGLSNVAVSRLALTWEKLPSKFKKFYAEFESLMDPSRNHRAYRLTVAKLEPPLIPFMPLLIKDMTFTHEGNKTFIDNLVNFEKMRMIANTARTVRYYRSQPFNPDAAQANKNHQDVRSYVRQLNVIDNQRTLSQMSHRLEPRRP", "assay": "Epac GEF activity assay (b-GDP dissociation from recombinant Rap1), Epac2", "assay_type": "biochemical", "text": "FIGS. 4-8. […] Variations of relative fluorescence units (RFU) were studied as a function of time and fitted to single exponentials."}, "[1]": {"test_system": "neonatal rat ventricular myocytes", "assay": "cytotoxicity in cultured cells", "assay_type": "cell-based", "settings": "various types of cultured cells including neonatal rat ventricular myocytes", "excerpt": "Neonatal rat ventricular myocytes (NRVM) isolation: Neonatal rats of 1-2 days old were euthanized by decapitation. The heart was excised and the atria were removed."}}}
{"smiles": "Nc1c(C(=O)Nc2ccc(F)cc2)sc2nc(-c3cccs3)cc(-c3ccccc3)c12", "note": "[AM-001, 3-amino-N-(4-fluorophenyl)-4-phenyl-6-(thiophen-2-yl)thieno[2,3-b]pyridine-2-carboxamide]", "values": [{"measurement": "effect on Epac2 GEF activity", "setting": "Epac2; 30 μM Sp-8-CPT, 20 μM inhibitor", "result": "no inhibitory effect"}, {"measurement": "IC50", "setting": "Epac2; Sp-8-CPT at its EC50 for the isoform", "result": "> 1000", "unit": "µM"}, {"measurement": "IC50", "setting": "Epac2; saturating concentration of Sp-8-CPT", "result": "> 1000", "unit": "µM"}, {"measurement": "cytotoxicity", "setting": "[1]", "result": "no apparent cytotoxicity"}]}
